Legend:
Format in all cases: cell-based
SH-SY5Y cells [1] = assay: MTT assay and microscopy, Tg-induced cytotoxicity in SH-SY5Y cells; details: for Tg-induced cell death and cell growth (microscopic observations): SH-SY5Y cells pre-treated with 50 μM, FIG. 13A; for ER stress-mediated Tg-induced cytotoxicity in SH-SY5Y cells (MTT assay): pre-treatment 12.5, 25, 50 μM for 12 h, then Tg 48 h, FIG. 13C
Procedure: (§1) In one example embodiment, effects of the Sativamide A and the Sativamide B on ER stress-induced neurotoxicity on a neuroblastoma cell models (SH-SY5Y cells) are tested. SH-SY5Y cells are purchased from the American Type Culture Collection (ATCC). SH-SY5Y cells are cultured in 1:1 mixture of DMEM and F12 medium containing 10% fetal bovine serum (Gibco, Carlsbad, USA). SH-SY5Y cells are incubated at 37° C. in a humidified atmosphere of 5% CO2 and 95% air. SH-SY5Y cells are seeded into 96-well culture plates (5.0×10^3 cells/well) and cultured under standard conditions for 12 h. Cells are then treated with the Sativamide A and the Sativamide B at concentrations of 12.5 μM, 25 μM and 50 μM or a vehicle for another 12 h. After treatment, the whole medium is replaced with fresh medium containing Tm (0.1 or 1.0 μM) or Tg (10 or 100 nM) and cells are incubated for additional 48 h. After incubation, supernatant is changed by fresh medium and MTT is given at a concentration of 0.5 mg/mL. After incubation at 37° C. for 4 h, the absorbance is measured at 570 nm with a micro-plate reader.

SH-SY5Y cells [2] = assay: Effect of the compounds on viability of SH-SY5Y cells; details: final concentration 50 μM, FIGS. 13A to 13C
Procedure: as §1

SH-SY5Y cells [3] = assay: MTT assay, Tm-induced cytotoxicity in SH-SY5Y cells (FIG. 13B); details: pre-treatment 12.5, 25, 50 μM for 12 h, then inducer 48 h
Procedure: as §1

PC12 cells [4] = assay: Effect of the compounds on viability of PC12 cells; details: final concentration 50 μM, FIGS. 12A to 12C
Procedure: (§2) In one example embodiment, effects of the Sativamide A and the Sativamide B ER stress-induced neurotoxicity on a neuroblastoma cell model (PC12 cells) are tested. PC-12 cells are purchased from the American Type Culture Collection (ATCC). PC-12 cells are cultured in DMEM medium (Invitrogen) supplemented with 100 U/ml penicillin, 100 μg/mL streptomycin, and 10% horse serum and 5% fetal bovine serum (Gibco, Carlsbad, USA). The cells are incubated at 37° C. in a humidified atmosphere of 5% CO2 and 95% air. PC12 cells are seeded into 96-well culture plates (5.0×10^3 cells/well) and cultured under standard conditions for 12 h. Cells are then treated with the Sativamide A and the Sativamide B at concentrations of 12.5 μM, 25 μM and 50 μM or a vehicle for another 12 h. After treatment, the whole medium is replaced with fresh medium containing tunicamycin (Tm) (0.1 nM or 1.0 μM) or thapsigargin (Tg) (10 nM or 100 nM) and the cells are incubated for additional 48 h. After incubation, supernatant is changed by fresh medium and thiazolyl blue tetrazolium bromide (MTT) is given at a concentration of 0.5 mg/mL. After incubation at 37° C. for 4 h, the absorbance is measured at 570 nm with a micro-plate reader.

PC12 cells [5] = assay: MTT assay and microscopy, tunicamycin (Tm)-induced cytotoxicity in PC12 cells; details: for cell death and cell growth induced by Tm (microscopic observations): PC12 cells pre-treated with 50 μM, FIG. 12A; for Tm-induced PC12 cell toxicity (MTT assay): pre-treatment 12.5, 25, 50 μM for 12 h, then Tm 48 h, FIG. 12B
Procedure: as §2

PC12 cells [6] = assay: MTT assay, thapsigargin (Tg)-induced cytotoxicity in PC12 cells; details: pre-treatment 12.5, 25, 50 μM for 12 h, then Tg 48 h; FIG. 12C
Procedure: as §2

SMILES	Tg-induced cell death and cell growth (microscopic observations) (SH-SY5Y cells [1])	ER stress-mediated Tg-induced cytotoxicity in SH-SY5Y cells (MTT assay) (SH-SY5Y cells [1])	adverse effects on cell viability (SH-SY5Y cells [2])	Tg-induced SH-SY5Y cell toxicity (MTT assay, FIG. 13B) (SH-SY5Y cells [3])	adverse effects on cell viability (PC12 cells [4])	cell death and cell growth induced by Tm (microscopic observations) (PC12 cells [5])	Tm-induced PC12 cell toxicity (MTT assay) (PC12 cells [5])	ER stress-mediated cytotoxicity in PC12 cells induced by Tg (MTT assay) (PC12 cells [6])
O=C(NCCc1ccc(O)cc1)C1=C[C@]23C=CC(=O)[C@@]2(O)c2cc(O)c(O)cc2[C@@H]3[C@H]1C(=O)NCCc1ccc(O)cc1 [Sativamide A]	markedly reduced	suppress ER stress-mediated Tg-induced cytotoxicity in SH-SY5Y cells tin a dose-dependent manner	no adverse effects on cell viability	mitigate the Tg-induced SH-SY5Y cell toxicity in a dose-dependent manner	no adverse effects on cell viability	markedly reduced	mitigate the Tm-induced PC12 cell toxicity in a dose-dependent manner	suppress ER stress-mediated cytotoxicity in PC12 cells that is induced by Tg in a dose-dependent manner
CO[C@]12C(=O)C=C[C@]13C=C(C(=O)NCCc1ccc(O)cc1)[C@H](C(=O)NCCc1ccc(O)cc1)[C@@H]3c1cc(O)c(O)cc12 [Sativamide B, 10-methoxyl-sativamide A]	markedly reduced	suppress ER stress-mediated Tg-induced cytotoxicity in SH-SY5Y cells tin a dose-dependent manner	no adverse effects on cell viability	mitigate the Tg-induced SH-SY5Y cell toxicity in a dose-dependent manner	no adverse effects on cell viability	markedly reduced	mitigate the Tm-induced PC12 cell toxicity in a dose-dependent manner	suppress ER stress-mediated cytotoxicity in PC12 cells that is induced by Tg in a dose-dependent manner

From US10155721B2, “Lignanamides and a method of treating neurodegenerative diseases by using the same” (Macau University of Science and Technology, priority 2017, dated 2018)
